In patent US11389453B2, “Compositions and methods for treating chemosensory dysfunction” (Cyrano Therapeutics, Inc., priority 2005, dated 2022):
“Also recorded” adds a separate entry of the source. Marks after values point to notes of the source that are not given here.

Columns and labels:
Format in all cases: in vivo, human
TRAIL = TRAIL in nasal mucus of patients with hyposmia before and after treatment with theophylline; conditions: for TRAIL: nasal mucus, patients with hyposmia (5)
Nitric Oxide (NO) = experiment: NO in nasal mucus of patients with hyposmia before and after theophylline treatment; conditions: for NO: nasal mucus, patients (12)
Excerpt: Table 33 in the examples illustrates NO in nasal mucus in patients treated with theophylline in various doses before and after drug treatment. NO levels in nasal mucus changed following the treatment of patients with smell loss. […] Its continual measurement during treatment of the disorders helps in monitoring efficacy of therapy. The detection of NO in nasal mucus provides a non invasive method of diagnosing various diseases related to human physiology and pathology. The methods of the present invention include treatment of diseases by modulating the concentrations of NO by use of drugs or agents. The method of treatment is preferably by nasal administration.
Table 33 illustrates NO levels in nasal mucus in patients treated with Theophylline in various doses before and after drug treatment. NO levels in nasal mucus changed following the treatment of patients with smell loss. […] Its continual measurement during treatment of these disorders helps in monitoring efficacy of therapy. The detection of NO in nasal mucus provides a non invasive method of diagnosing various diseases related to human physiology and pathology.

TNFα = TNFα in nasal mucus of patients with hyposmia treated with theophylline; conditions: for TNF∝: nasal mucus, patients with hyposmia (24)
Excerpt: (§1) Table 35 illustrates detection and measurement of TNFα, and soluble TNF receptors 1 and 2, moieties in the nasal mucus. TNFα, and soluble TNF receptors 1 and 2 increase in systems undergoing excessive apoptosis.
(§2) These studies were extended to reveal levels of TNFα in nasal mucus of patients with graded loss of smell following treatment with theophylline (Table 36). Smell loss was graded such that loss was greatest in Type I hyposmia, less in Type II and still less in Type III (I>II>III). […] Following treatment which was effective in restoring smell function toward normal, levels of TNFα decreased in each patient group consistent with each increased dose of theophylline which generated a dose dependent increase in smell function—as theophylline dose increased, smell function increased and TNFα levels decreased. In Type I hyposmia TNFα decreased 40% after treatment with 400 mg theophylline and 57% after treatment 600 mg. In Type II hyposmia TNFα decreased 11% after treatment with 600 mg theophylline.

TNFR 1 = TNFR 1 in nasal mucus of patients with hyposmia treated with theophylline; conditions: for TNFR1: nasal mucus, patients with hyposmia (19)
Excerpt: as §1
With increased smell loss pre treatment TNFR 1 levels were increased in nasal mucus in patients with Type I hyposmia (whose smell loss was increased over that of patients with Type II hyposmia). […] The greater was the smell loss, the higher was the level of TNFR 1.

TNFR 2 = TNFR 2 in nasal mucus of patients with hyposmia treated with theophylline; conditions: for TNFR2: nasal mucus, patients with hyposmia (18)
Experimental: as §1
With a dose dependent increase of theophylline treatment levels of TNFR 2 in nasal mucus decreased consistent with a dose dependent increase in smell function. Levels of TNFR 2 in patients with Type I and Type II hyposmia decreased almost 50% on 600 mg theophylline consistent with their greatest return of smell function. At this highest level of theophylline levels of TNFR 2 were decreased in relationship to the decrease in smell function-TNFR 2, Type I>Type II>Type III; smell loss, Type I>Type II>Type III.

patients with hyposmia = experiment: Smell function (olfactory acuity) in patients with hyposmia treated with theophylline
Excerpt: as §2

[1] = patients with hyposmia, stepwise increase in theophylline dose
[2] = hyposmia Type I (7), theophylline 200 mg orally daily
[3] = hyposmia Type I (7), theophylline 600 mg orally daily
[4] = hyposmia Type II (10), theophylline 200 mg orally daily
[5] = hyposmia Type II (10), theophylline 400 mg orally daily
[6] = hyposmia Type II (10), theophylline 600 mg orally daily
[7] = hyposmia Type III (2), theophylline 600 mg orally daily

Cn1c(=O)c2[nH]cnc2n(C)c1=O [theophylline]
TRAIL (TRAIL; theophylline 200 mg): 855 µg/mL
TRAIL (TRAIL; theophylline 400 mg): 791 µg/mL
TRAIL (TRAIL; theophylline 600 mg): 247 µg/mL
TRAIL in nasal mucus, change after treatment (TRAIL; patients with hyposmia, before vs after theophylline at various doses): dose-dependent decrease
NO (Nitric Oxide (NO); Theophylline 200 mg): 0.25 ± 0.01 µg/mL
NO (Nitric Oxide (NO); Theophylline 400 mg): 0.40 ± 0.06 µg/mL
NO (Nitric Oxide (NO); Theophylline 600 mg): 0.59 ± 0.16 µg/mL
NO in nasal mucus, change after treatment (Nitric Oxide (NO); patients with hyposmia, theophylline in graded doses): increases in nasal mucus NO
TNFα decrease in nasal mucus (TNFα; Type I hyposmia, 400 mg theophylline): 40%
TNFα decrease in nasal mucus (TNFα; Type I hyposmia, 600 mg theophylline): 57%
TNFα decrease in nasal mucus (TNFα; Type II hyposmia, 600 mg theophylline): 11%
TNF∝ in nasal mucus (TNFα; hyposmia Type I (8), theophylline 400 mg orally daily): 15.6
TNF∝ in nasal mucus (TNFα; hyposmia Type I (8), theophylline 600 mg orally daily): 11.2 ± 4.4^
TNF∝ in nasal mucus (TNFα; hyposmia Type II (13), theophylline 200 mg orally daily): 14.9 ± 2.5
TNF∝ in nasal mucus (TNFα; hyposmia Type II (13), theophylline 400 mg orally daily): 11.5 ± 3.2
TNF∝ in nasal mucus (TNFα; hyposmia Type II (13), theophylline 600 mg orally daily): 4.3 ± 0.8^a
TNF∝ in nasal mucus (TNFα; hyposmia Type III (3), theophylline 600 mg orally daily): 1.2 ± 0.7^bc
TNF∝ (TNFα; Theophylline treatment 200): 20.0 ± 2.8 µg/mL
TNF∝ (TNFα; Theophylline treatment 400): 12.1 ± 2.1 µg/mL
TNF∝ (TNFα; Theophylline treatment 600): 7.4 ± 1.8 µg/mL
TNFα in nasal mucus, change after treatment (TNFα; [1]): significant dose-response decrease
TNFR 1 in nasal mucus (TNFR 1; [2]): 6,521 ± 1,304^c
TNFR 1 in nasal mucus (TNFR 1; hyposmia Type I (7), theophylline 400 mg orally daily): 1,498
TNFR 1 in nasal mucus (TNFR 1; [3]): 1,832 ± 704^a
TNFR 1 in nasal mucus (TNFR 1; [4]): 1,462 ± 371 ^
TNFR 1 in nasal mucus (TNFR 1; [5]): 1,087 ± 335
TNFR 1 in nasal mucus (TNFR 1; [6]): 862 ± 335
TNFR 1 in nasal mucus (TNFR 1; [7]): 585 ± 335
TNFR1 (TNFR 1; Theophylline treatment 200): 3,148 ± 663
TNFR1 (TNFR 1; Theophylline treatment 400): 1,146 ± 220^b
TNFR1 (TNFR 1; Theophylline treatment 600): 1,220 ± 286^ab
TNFR 1 in nasal mucus, change after treatment (TNFR 1; [1]): significant dose-response decrease; also recorded: TNFR 1 levels decreased in Type I
TNFR 2 decrease in nasal mucus (TNFR 2; Type I and Type II hyposmia, 600 mg theophylline): ~50%
TNFR2 in nasal mucus (TNFR 2; [2]): 3,100 ± 1,184
TNFR2 in nasal mucus (TNFR 2; [3]): 1,491 ± 1,102
TNFR2 in nasal mucus (TNFR 2; [4]): 1,378 ± 480^
TNFR2 in nasal mucus (TNFR 2; [5]): 1,014 ± 272
TNFR2 in nasal mucus (TNFR 2; [6]): 553 ± 158
TNFR2 in nasal mucus (TNFR 2; [7]): 436 ± 443
TNFR2 (TNFR 2; Theophylline treatment 200): 1,952 ± 339
TNFR2 (TNFR 2; Theophylline treatment 400): 949 ± 180^c
TNFR2 (TNFR 2; Theophylline treatment 600): 916 ± 344
TNFR 2 in nasal mucus, change after treatment (TNFR 2; [1]): significant dose-response decrease; also recorded: decreased
smell function (patients with hyposmia; 600 mg theophylline): restored smell function to or toward normal
smell function (patients with hyposmia; theophylline at various (graded) doses): returned smell function to normal in a dose-dependent manner; also recorded: graded increases in smell function; also recorded: stepwise improvement in olfactory acuity
